Laboratory results as given in article PMC7219735, “Crystal structure of Thermus thermophilus methylenetetrahydrofolate dehydrogenase and determinants of thermostability” (PLoS ONE, 2020).

Target: T1, T. thermophilus methylenetetrahydrofolate dehydrogenase (TtMTHFD) (Thermus thermophilus, UniProt Q5SJ94)
T1 construct: gene folD; His-tagged (pQtev, tag removal not mentioned), expressed in E. coli BL21(DE3), 33 kDa, dimer; 277 residues in the model, one chain per asymmetric unit
T1 sequence (Q5SJ94 1-282): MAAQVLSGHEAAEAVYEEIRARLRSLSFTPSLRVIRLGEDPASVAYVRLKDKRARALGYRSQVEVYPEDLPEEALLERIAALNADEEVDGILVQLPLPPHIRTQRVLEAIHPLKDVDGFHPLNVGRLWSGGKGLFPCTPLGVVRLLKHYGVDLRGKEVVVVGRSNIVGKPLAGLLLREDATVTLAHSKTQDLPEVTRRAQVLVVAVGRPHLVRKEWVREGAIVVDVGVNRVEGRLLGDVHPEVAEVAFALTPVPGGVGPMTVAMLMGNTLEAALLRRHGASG
Assay: X-ray crystal structure, […] A
Settings: crystals from 800 mM potassium sodium tartrate, 100 mM HEPES pH 7.5; nucleotide binding domain; NADP+ addition not described

NC(=O)c1ccc[n+]([C@@H]2O[C@H](COP(=O)(O)OP(=O)(O)OC[C@H]3O[C@@H](n4cnc5c(N)ncnc54)[C@H](OP(=O)(O)O)[C@@H]3O)[C@@H](O)[C@H]2O)c1 [NADP^+]
X-ray crystal structure, 2.15 A: we were able to unambiguously identify and fit a molecule of NADP^+
